Assay results as given in patent US4294845A, “1,3-Benzodioxin derivatives” (priority 1978, dated 1981).

How the values were obtained:
[1] = tested on: mice; assay: Acute toxicity in mice (intraperitoneal, DL50); format: in vivo; conditions: observed for one week, 10080 min
Description: (§1) The acute toxicity was determined on groups of 5 mice weighing about 18 to 22 g and the test products were intraperitoneally administered in suspension in an aqueous carboxymethylcellulose.

[2] = tested on: levels of triglycerides, cholesterol and total lipids; assay: Hypolipemiant activity: plasma lipid levels in rats on a saccharose and cholesterol-rich regime, 10 days treatment; format: in vivo, male rats of the Sprague Dawley S.P.F. strain; conditions: esophague tube, vs untreated controls
Description: This test was effected on groups of 8 male rats of the Sprague Dawley S.P.F. strain weighing about 200 g and the animals received a regime containing 50% of saccharose and which was rich in cholesterol (1%). The rats were treated over 10 days with the test products which were administered through an esophague tube as a suspension in water containing carboxymethylcellulose. The animals were killed 16 hours after the last administration of the test product by an abdominal puncture and from the blood sample with sodium heparinate, the levels of triglycerides, cholesterol and total lipids were determined by the following methods.
The triglyceride level was determined by the semi-automatic technique of Kessler et al [Automation in Analytical Chemistry, 1965, p. 341] modified by Claude et al [Ann. Biol. Clin., Vol. 26 3-4 (1968), p. 451]. The cholesterol levels were determined by the technique of Levine [Symposium Technicon, Vol. I. (1967), p. 25] adapted to auto-analyzer system I. The nephelometric level of total lipids was determined semi-automatically by the method of Girard et al [Symposium Technicon, 1970]. The variations expressed in percentages of the level of triglycerides, cholesterol and total lipids after administration of the various dosage of the test products in the treated animals as compared to the untreated controls and the results are reported in Table I.

[3] = Acute toxicity in mice (intraperitoneal, DL50); format: in vivo; conditions: mouse, in vivo, ip, observed for one week
Description: as §1

| Compound | DL50 [1] [mg/kg] | % Variation of levels, Cholesterol ([2]; 2 mg/kg/day) [%] | % Variation of levels, Total Lipids ([2]; 2 mg/kg/day) [%] | % Variation of levels, Triglycerides ([2]; 2 mg/kg/day) [%] | LD50 at 168 h [3] [mg/kg] | % Variation of levels, Cholesterol ([2]; 1 mg/kg/day) [%] | % Variation of levels, Total Lipids ([2]; 1 mg/kg/day) [%] | % Variation of levels, Triglycerides ([2]; 1 mg/kg/day) [%] | % Variation of levels, Cholesterol ([2]; 5 mg/kg/day) [%] | % Variation of levels, Total Lipids ([2]; 5 mg/kg/day) [%] | % Variation of levels, Triglycerides ([2]; 5 mg/kg/day) [%] |
| --- | --- | --- | --- | --- | --- | --- | --- | --- | --- | --- | --- |
| CC1(c2ccccc2)OC(C(=O)O)Oc2ccc(Cl)cc21 (racemic) [Example 3, 6-chloro-4-methyl-4-phenyl-[4H]-1,3-benzodioxin-2-carboxylic acid] | 150 | -36 | -38 | -12 |  |  |  |  |  |  |  |
| CC1(c2ccccc2)OC(C(=O)O)Oc2ccc(Cl)cc21 (single isomer, unassigned) [17 Isomer A] |  | -43 | -47 | -57 | ~200 |  |  |  |  |  |  |
| CCOC(=O)C1Oc2ccc(Cl)cc2C(C)(c2ccccc2)O1 (single isomer, unassigned) [16 Isomer A] |  | -17 | -25 | -32 | ~800 |  |  |  |  |  |  |
| CC1(c2cccc(Cl)c2)OC(C(=O)O)Oc2ccc(Cl)cc21 (single isomer, unassigned) [21 Isomer A] |  |  |  |  | ~150 | -11 | -25 | -62 |  |  |  |
| CC1(c2ccccc2)OC(C(=O)O)Oc2ccc(Cl)cc21 (single isomer, unassigned) [18 Isomer A 1 form] |  | -47 | -53 | -53 | ~250 |  |  |  |  |  |  |
| CN(C)CCOC(=O)C1Oc2ccc(Cl)cc2C(C)(c2ccccc2)O1 (single isomer, unassigned) [41 Isomer A] |  |  |  |  | ~200 |  |  |  | -40 | -49 | -43 |
| CC1(c2ccccc2)OC(C(=O)O)Oc2ccc(Cl)cc21 (racemic) [Example 1, 6-chloro-4-methyl-4-phenyl-[4H]-1,3-benzodioxin-2-carboxylic acid] |  |  |  |  | 130 |  |  |  | -22 | -26 | -11 |
| COC(=O)C1Oc2ccc(Cl)cc2C(C)(c2cccc(Cl)c2)O1 (single isomer, unassigned) [20 Isomer A] |  |  |  |  | ≤ 1000 | -36 | -32 | -13 |  |  |  |
